In PMC6115449, “Rapid and simple detection of Tamiflu-resistant influenza virus: Development of oseltamivir derivative-based lateral flow biosensor for point-of-care (POC) diagnostics” (Scientific Reports, 2018):

Tests used:
[1] = biological target: WT NA (neuraminidase of pandemic H1N1 virus A/California/07/2009) (Influenza A virus (A/California/07/2009(H1N1)), UniProt C3W6G3); experiment: fluorescence NA activity assay (ex […] nm, em […] nm); assay type: biochemical; conditions: 37 °C, 60 min; whole virus
[2] = biological target: WT NA (neuraminidase of pandemic H1N1 virus A/California/07/2009) (Influenza A virus (A/California/07/2009(H1N1)), UniProt C3W6G3); experiment: fluorescence NA inhibition assay (NA-Fluor, MUNANA); assay type: biochemical; conditions: MUNANA substrate; 30 min preincubation, 60 min reaction, 37 °C; whole virus 10^6 PFU/mL; ethyl ester prodrug tested as such

| Compound | fluorescence NA activity assay (ex 360 nm, em 450 nm) [1] | relative NA activity [2] |
| --- | --- | --- |
| CC(=O)N[C@H]1[C@H]([C@H](O)[C@H](O)CO)O[C@@](Oc2ccc3c(C)cc(=O)oc3c2)(C(=O)O)C[C@@H]1O [2-(4-methylumbelliferyl)-a-D-N-acetylneuraminic acid] | (MUNANA) was used as the fluorescent substrate to determine the NA enzymatic parameters |  |
| CCOC(=O)C1=C[C@@H](OC(CC)CC)[C@H](NC(C)=O)[C@@H](N)C1 [compound 3, oseltamivir phosphate] |  | increase in oseltamivir phosphate concentration was accompanied by its binding to WT NA and inhibition |
